In the first assay the target is T1, Syk kinase (Homo sapiens, UniProt P43405).
T1 construct: purchased
Nature of the assay: Syk kinase inhibition, Caliper LabChip off-chip mobility-shift kinase assay. The settings on record: Caliper LabChip assay; read-out: Syk Enzyme IC50. The format is biochemical. In a few lines: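 Purified Syk pre-incubated 15 min with compound in 100 mM HEPES pH 7.5, 1 mM DTT, 10 mM MgCl2 or MnCl2, 0.002% Brij-35, then 1.5 μM fluorescein peptide and ATP at apparent KM added; 1–1.5 h at room temperature, 4% DMSO, EDTA stop. Microfluidic mobility-shift product/substrate conversion gave % inhibition; IC50 from 12-point series (10–0.00003 μM) by 4-parameter fit.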
Consider `NC(=O)Cn1ccc2cc(-c3cnc(N)nc3)nc(N[C@H]3C[C@@H](CO)C3)c2c1=O` [compound 746], for which the IC50 came to 44 nM.
On to `CC(O)c1ccnc(Nc2cc3ccn(CC(N)=O)c(=O)c3c(NC(C)(C)C)n2)c1` (stereo not shown) [compound 725], for which the IC50 worked out at 31 nM.
Turning to `CC(C)(C)Nc1nc(Nc2cc(C(F)F)ccn2)cc2ccn(CCO)c(=O)c12` [compound 615], the 50% inhibitory concentration (IC50) worked out at 9 nM.
In the case of `CC(C)(C)Nc1nc(Nc2c[n+]([O-])ccn2)cc2ccn(C[C@H](O)CO)c(=O)c12` [compound 674], the IC50 amounted to 7 nM.
For `CC(C)(C)Nc1nc(Nc2cc(CN3CC(O)C3)ccn2)cc2ccn(CCO)c(=O)c12` [Compound No. 600, 8-(tert-butylamino)-6-(4-((3-hydroxyazetidin-1-yl)methyl)pyridin-2-ylamino)-2-(2-hydroxyethyl)-2,7-naphthyridin-1(2H)-one], the IC50 is 18.6 nM.
As for `N#CCn1ccc2cc(-c3cnc(N)nc3)nc(NC3CCOCC3)c2c1=O` [compound 751], the IC50 turned out to be 70 nM.
On the same count and under the same terms, the figure for `Cn1cc(-c2cc(Nc3cc4ccn(CCO)c(=O)c4c(NC(C)(C)C)n3)ncn2)cn1` [compound 636] is 237 nM.
The same measure, in the same setting: the figure for `CC[C@H](CO)Nc1nc(Nc2cc(C)ccn2)cc2ccn(CC)c(=O)c12` [compound 598] is 518 nM; for `CCn1ccc2cc(Nc3cc(C(C)(C)O)ccn3)nc(NC(C)(C)CO)c2c1=O` [compound 701] it is 69 nM.
For `Nc1ncc(-c2cc3ccn(CCO)c(=O)c3c(N3CCCC3)n2)cn1` [compound 909], the IC50 was 546 nM.
Same read-out and setting: the figure for `CC(C)(C)Nc1nc(Nc2cc(C(=O)O)ccn2)cc2ccn(CCO)c(=O)c12` [compound 680] is 643 nM; for `CC(C)(C)Nc1nc(-c2cnc(N)nc2)cc2ccn(C[C@H](O)CO)c(=O)c12` [compound 935] it is 8 nM.
With `CC1(Cn2ccc3cc(-c4cnc(N)nc4)nc(NC4(C)CCC4)c3c2=O)COC1` [compound 932], the IC50 turned out to be 57 nM.
Same read-out and setting: with `CC(=O)c1cc(Nc2cc3ccn(CCO)c(=O)c3c(NC(C)(C)C)n2)ncn1` [compound 633, 6-(6-acetylpyrimidin-4-ylamino)-8-(tert-butylamino)-2-(2-hydroxyethyl)-2,7-naphthyridin-1(2H)-one] the figure was 273 nM.
On to `[2H]C([2H])([2H])n1ccc2cc(Nc3cnccn3)nc(N[C@@H](C)CO)c2c1=O` [compound 1050], for which the half-maximal inhibitory concentration (IC50) came to 45.7 nM.
Same read-out and setting: the figure for `CC(C)(C)Nc1nc(Nc2cc(CN)ccn2)cc2ccn(CCO)c(=O)c12` [compound 707] is 59 nM; for `CC(C)(C)Nc1nc(Nc2ccc(C#N)cn2)cc2ccn(CCO)c(=O)c12` [compound 697] it is 208 nM.
`CC(C)(C)Nc1nc(Nc2cc(CO)ncn2)cc2ccn(CCO)c(=O)c12` [Compound No. 607, 8-(tert-butylamino)-2-(2-hydroxyethyl)-6-(6-(hydroxymethyl)pyrimidin-4-ylamino)-2,7-naphthyridin-1(2H)-one]: the IC50 is 29 nM.
On to `[2H]C([2H])([2H])n1ccc2cc(Nc3cnccn3)nc(NC3CC3)c2c1=O` [compound 824], for which the IC50 came out at 18 nM.

The assay is the same for the next values; noted with them: read-out: Syk Enzyme IC50.
Consider `CCn1ccc2cc(Nc3cnccn3)nc(N[C@H]3CCC[C@H]3O)c2c1=O` (racemic) [compound 354], for which the IC50 is 18 nM.
For the compound `COc1cncc(-c2cc3cc[nH]c(=O)c3c(Nc3ccc(C4CCN(C5CC5)CC4)c(C)c3)n2)n1` [compound 210], the IC50 worked out at 88 nM.
Consider `CC(C)C(C)Nc1nc(Nc2ccccn2)cc2cc[nH]c(=O)c12` (stereo not shown) [compound 278], for which the IC50 worked out at 2210 nM.
For the compound `Cn1ccc2cc(Nc3cc(Cl)ccn3)nc(N[C@H]3CC[C@@H](O)CC3)c2c1=O` [compound 379], the IC50 came to 36 nM.
In the case of `Cc1ccnc(Nc2cc3ccn(C)c(=O)c3c(NC[C@H]3CCCO3)n2)c1` [compound 512], the IC50 amounted to 158 nM.
As for `CCNC(=O)c1ccc(Nc2nc(Nc3cc(C)ccn3)cc3ccn(C)c(=O)c23)cc1` [compound 380], the IC50 was determined as 379 nM.
Take `CN(C)CCn1ccc2cc(Nc3cc(Cl)ccn3)nc(N[C@H]3CC[C@@H](O)CC3)c2c1=O` [compound 388]: the IC50 was 42 nM.
The same measure, in the same setting: the figure for `CC(=O)c1cc2cc[nH]c(=O)c2c(Nc2ccc(C3CCNCC3)c(C)c2)n1` [compound 232] is 242 nM; for `Cc1cccnc1Nc1cc2cc[nH]c(=O)c2c(Nc2ccc(N3CCOCC3)cc2)n1` [compound 533] it is 382 nM.
As for `CCN1CCN(CCc2ccc(Nc3nc(Nc4ccccn4)cc4cc[nH]c(=O)c34)cc2)CC1` [compound 551], the IC50 amounted to 200 nM.
As for `COCCCc1cc2cc[nH]c(=O)c2c(Nc2ccc(C3CCN(C4CC4)CC3)c(C)c2)n1` [compound 238], the half-inhibitory concentration (IC50) is 1290 nM.
As for `CCn1ccc2cc(Nc3cc(C)ccn3)nc(NC(C)(C)C)c2c1=O` [compound 525], the half-maximal inhibitory concentration (IC50) came to 242 nM.
Still for that read-out and setting: the figure for `Cc1ccnc(Nc2cc3cc[nH]c(=O)c3c(N[C@H]3CCC[C@H]3O)n2)c1` (racemic) [compound 271] is 26 nM.
Take `Nc1ncc(-c2cc3cc[nH]c(=O)c3c(N[C@@H]3CCC[C@H]3O)n2)cn1` [compound 184]: the IC50 worked out at 59 nM.
Take `Cc1ccnc(Nc2cc3ccn(C)c(=O)c3c(Nc3ccc(C(=O)N4CCOCC4)cc3)n2)c1` [compound 500]: the IC50 worked out at 69 nM.
The same measure, in the same setting: the figure for `O=c1[nH]cc(F)c2cc(-c3cncnc3)nc(Nc3ccc(N4CCOCC4)cc3)c12` [compound 429] is 55 nM.
Turning to `C[C@@H]1CN([C@H]2CC[C@H](c3ccc(Nc4nc(-c5cncnc5)cc5cc[nH]c(=O)c45)cc3)CC2)CCO1` [compound 93], the IC50 worked out at 433 nM.
With `C[C@H](CO)Nc1nc(Nc2ccccn2)cc2cc[nH]c(=O)c12` [compound 299], the IC50 is 68 nM.
For the compound `COCCN1CCN(c2n[nH]c3cc(Nc4nc(-c5cncc(OC)n5)cc5cc[nH]c(=O)c45)ccc23)CC1` [compound 217], the IC50 was found to be 29 nM.
Turning to `Nc1ncc(-c2cc3cc[nH]c(=O)c3c(NC3CCOC3)n2)cn1` (stereo not shown) [compound 185], the IC50 was 145 nM.
On to `CC(C)(C)Nc1nc(Nc2cnccn2)cc2ccn(CCO)c(=O)c12` [compound 459], for which the IC50 was found to be 52 nM.
On to `Cc1cnc(Nc2cc3cc[nH]c(=O)c3c(Nc3ccc(C4CCN(C5CC5)CC4)c(C)c3)n2)cn1` [compound 248], for which the half-inhibitory concentration (IC50) worked out at 2020 nM.
Same read-out and setting: with `CC(C)(CO)Nc1nc(Nc2cnccn2)cc2ccn(CCO)c(=O)c12` [compound 473] the figure was 114 nM; with `COc1cncc(-c2cc3cc[nH]c(=O)c3c(Nc3ccc(C4CCN(CCS(C)(=O)=O)CC4)c(C)c3)n2)n1` [compound 132], 115 nM.
For `COc1cncc(-c2cc3cc[nH]c(=O)c3c(Nc3ccc(C4=CCSCC4)c(C)c3)n2)n1` [compound 12], the IC50 worked out at 3430 nM.
Turning to `COC(=O)C(C)N1CCC(c2ccc(Nc3nc(-c4cncc(OC)n4)cc4cc[nH]c(=O)c34)cc2C)CC1` (stereo not shown) [compound 116], the IC50 turned out to be 184 nM.
`CCC(C)Nc1nc(Nc2cc(C)ccn2)cc2cc[nH]c(=O)c12` (stereo not shown) [compound 262]: the IC50 turned out to be 201 nM.
As for `CN(C)CCn1ccc2cc(Nc3cnccn3)nc(N[C@H]3CC[C@@H](O)CC3)c2c1=O` [compound 387], the IC50 came out at 33 nM.
Turning to `O=c1[nH]ccc2cc(Nc3ccccn3)nc(NCC3CC3)c12` [compound 291], the IC50 worked out at 312 nM.
As for `C[C@H](O)CNc1nc(-c2cnc(N)nc2)cc2cc[nH]c(=O)c12` [compound 451], the IC50 amounted to 88 nM.

The record behind these values is patent publication US20110053897A1 (IRM LLC, priority 2009, published 2011).
